Measured values taken from patent publication US20230123334A1, “AMINO LIPID COMPOUND, PREPARATION METHOD THEREFOR, AND APPLICATION THEREOF” (SHENZHEN SHENXIN BIOTECHNOLOGY CO., LTD., priority 2020, published 2023).

system: HEK293 cells; test: Preliminary screening as mRNA vectors, EGFP mRNA transfection of HEK293 cells; format: cell-based; conditions: EGFP mRNA 50 ng per well, 96-well plates; percentage of GFP fluorescent cells relative to total number of cells (Hoechst)
Outline: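 Screening format: EGFP mRNA transfection (50 ng/well) into HEK293 in 10% FBS-supplemented DMEM. Percent green fluorescent cells, normalised to Hoechst nuclear count, gave the value; Lipofectamine2000 was the reference transfectant.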

First: CCCCCCCCCCCCCNc1nc(NCCN(CC)CC)nc(SCCCCCCCCCCCC)n1 [Compound D7S12N13]
Second: CCCCCCCCCCCCCCCCNc1nc(NCCN(C)C)nc(SCCCCCCCCCC)n1 [Compound D1S10N16]
The “Absolute mRNA transfection efficiency in HEK293 cells” value (“Absolute mRNA transfection efficiency” for short) of the first is lower: 4.9% for the first, 40.7% for the second.

First: CCCCCCCCCCCCCCCSc1nc(NCCCCCCCC)nc(NCCN2CCOCC2)n1 [Compound D2S15N8]
Second: CCCCCCCCCCCCCCCNc1nc(NCCN2CCOCC2)nc(SCCCCCCCCC)n1 [Compound D2S9N15]
The “Absolute mRNA transfection efficiency” value of the first is lower: 2.2% for the first, 5.9% for the second.

Compared with `CCCCCCCCCSc1nc(NCCCCCCC)nc(NCCN2CCCCC2)n1` [Compound D4S9N7], `CCCCCCCCSc1nc(NCCCCCCC)nc(NCCN2CCCCC2)n1` [Compound D4S8N7] is lower in “Absolute mRNA transfection efficiency” value: 3.0% for the first, 1.8% for the second.

First: CCCCCCCCCCCCCCSc1nc(NCCCCCCC)nc(NCCN(C)C)n1 [Compound D1S14N7]
Second: CCCCCCCCCCCCCCCSc1nc(NCCCCCC)nc(NCCN(C)C)n1 [Compound D1S15N6]
The “Absolute mRNA transfection efficiency” value of the first is lower: 25.7% for the first, 37.7% for the second.

First: CCCCCCCCCCCCCCCCCCNc1nc(NCCN2CCOCC2)nc(SCCCCCCCCCCC)n1 [Compound D2S11N18]
Second: CCCCCCCCCCCCCCCCNc1nc(NCCCN2CCOCC2)nc(SCCCCCCCCCCC)n1 [Compound D8S11N16]
The “Absolute mRNA transfection efficiency” value of the first is lower: 0.0% for the first, 0.7% for the second.

Compared with `CCCCCCCCCSc1nc(NCC2CCN(C)CC2)nc(SCCCCCCC)n1` [Compound D10S7S9], `CCCCCCCCCCCSc1nc(NCCCCCCCC)nc(NCC2CCN(C)CC2)n1` [Compound D10S11N8] is higher in “Absolute mRNA transfection efficiency” value: 33.5% for the first, 46.1% for the second.

Going from `CCCCCCCCCCCNc1nc(NCCN2CCCCC2)nc(SCCCCCCCCC)n1` [Compound D4S9N11] to `CCCCCCCCCCCSc1nc(NCCCCCCC)nc(NCCN2CCCC2)n1` [Compound D3S11N7], the “Absolute mRNA transfection efficiency” value falls from 17.4% to 8.0%.

Compared with `CCCCCCCCCCCCCCCSc1nc(NCCCCCCCCCCCC)nc(NCC2CCN(C)CC2)n1` [Compound D10S15N12], `CCCCCCCCCCCCCCCCCCNc1nc(NCC2CCN(C)CC2)nc(SCCCCCCCCCCCCCC)n1` [Compound D10S14N18] is lower in “Absolute mRNA transfection efficiency” value: 5.1% for the first, 2.6% for the second.

First: CCCCCCCCCNc1nc(NCCN(CC)CC)nc(SCCCCCCCC)n1 [Compound D7S8N9]
Second: CCCCCCCCCCCSc1nc(NCCCCCCC)nc(NCCCN2CCOCC2)n1 [Compound D8S11N7]
The “Absolute mRNA transfection efficiency” value of the first is higher: 9.5% for the first, 3.1% for the second.

Compared with `CCCCCCCCCCCCNc1nc(NCCN2CCCCC2)nc(SCCCCCCCCCCCC)n1` [Compound D4S12N12], `CCCCCCCCCCCCCCCCCCNc1nc(NCCN2CCCCC2)nc(SCCCCCCCC)n1` [Compound D4S8N18] is higher in “Absolute mRNA transfection efficiency” value: 2.1% for the first, 3.5% for the second.

Going from `CCCCCCCCCCCCCCCCSc1nc(NCCN2CCCC2)nc(SCCCCCCC)n1` [Compound D3S7S16] to `CCCCCCCCCCCCCCSc1nc(NCCN2CCCC2)nc(SCCCCCC)n1` [Compound D3S6S14], the “Absolute mRNA transfection efficiency” value falls from 11.6% to 0.3%.

`CCCCCCCCCCCCCCCCCCNc1nc(NCCN2CCN(C)CC2)nc(SCCCCCCCCCCCCCCC)n1` [Compound D5S15N18] and `CCCCCCCCCCCCCCCCSc1nc(NCCCCCCCCCCCC)nc(NCCN2CCCC2)n1` [Compound D3S16N12] are the same in “Absolute mRNA transfection efficiency” value: 1.7% for the first, 1.7% for the second.

Going from `CCCCCCCCCCCCCCSc1nc(NCCCCCCCCCCCCC)nc(NCCCN(C)C)n1` [Compound D6S14N13] to `CCCCCCCCCCCCCCCSc1nc(NCCCCCCC)nc(NCCN2CCN(C)CC2)n1` [Compound D5S15N7], the “Absolute mRNA transfection efficiency” value rises from 5.2% to 25.2%.

With `CCCCCCCCCCCNc1nc(NCCCN2CCOCC2)nc(SCCCCCCC)n1` [Compound D8S7N11] the “Absolute mRNA transfection efficiency” value was 20.1%.
